Assay results: patent publication US8580834B2, “Small molecule modulators of hepatocyte growth factor (scatter factor) activity” (Angion Biomedica Corp., priority 2002, dated 2013)

Legend:
HUVECs = assay: Nitric oxide production in HUVECs, DAF 2-DA fluorescence; assay type: cell-based, human; conditions: 24 hours
Description: c. […] HUVECs are incubated with either vehicle, HGF/SF, instant compounds, or SNAP for 24 hours, loaded with the nitric oxide-sensitive fluorescence indicator DAF 2-DA and imaged under a laser scanning confocal microscope.
HGF and compounds of the invention may exert their anti-apoptotic effects in part through stimulation of nitric oxide production. We incubated HUVECs with either HGF or instant compounds and measured NO production using the nitric oxide-sensitive fluorescence indicator DAF 2-DA. […] Without wishing to be bound to any particular theory, we propose that the anti-apoptotic activities of both HGF and compounds of the invention may be mediated by nitric oxide production.

[1] = MTT cell viability assay, adriamycin-induced apoptosis; assay type: cell-based; conditions: dog, MDCK cells, of untreated cells, read-out: cell viability, adriamycin alone
From the text: (§1) a. HGF/SF and instant compounds have significant anti-apoptotic activity in cultured cell lines.
(§2) Using the MTT cell viability assay we tested the ability of compounds of the invention to protect cells from adriamycin-induced apoptosis. […] Adriamycin alone decreased cell viability to 56% of untreated cells.

C57BL/6 mice = conditions: earlier studies with HGF; cited from earlier work
MDCK cells = assay: MTT cell viability assay, adriamycin-induced apoptosis; assay type: cell-based
From the text: as §1, §2

isolated aortic rings = assay: Aortic ring assay; assay type: cell-based, Sprague Dawley rats; conditions: instant compound or HGF (100 ng/ml), day 5
From the text: a. Aortic ring assay. Thoracic artery rings from rats are embedded in Matrigel and grown for 5 days in the presence or absence of HGF/SF or compounds of the invention. Treatment with compounds of the invention causes an increased outgrowth from the rings similar to that seen with HGF/SF.
Thoracic aortas from 100 gm Sprague Dawley rats are isolated under sterile conditions and cut into rings of approximately 0.8 to 1.0 mm in length. The rings are embedded in Matrigel in the bottom of 48 well culture plates and instant compound […] or HGF (100 ng/ml, as positive control) was added in […] of serum-free tissue culture medium (Human endothelial-SFM basal growth medium plus 1% bovine serum albumin). An inventive compound or HGF was replenished on day 4; on day 5, the rings were photographed and examined for outgrowths. […] Without wishing to be bound to any particular theory, we propose that inventive compounds are capable of activating proliferation of cells required for angiogenesis.

[2] = test system: NIH-3T3 cells transfected with c-met receptor; assay: Protection against adriamycin-induced apoptosis, c-met transfected NIH-3T3 cells, MTT assay; assay type: cell-based; conditions: pre-treated 48 hr with HGF (50 ng/ml) or compound (12 mg/ml), adriamycin (15 mM) 2 hr
Description: b. Protection from apoptosis in NIH-3T3 cells transfected with c-met receptor.
NIH3T3 cells were pre-treated with HGF (50 ng/ml) or compound (12 mg/ml) for 48 hr. Cells were then exposed to adriamycin (ADR) (15 mM) for 2 hr, and post-incubated for 48 hr before performing the MTT assay. […] There was no protection from apoptosis by either compound in non-transfected cells lacking the c-met receptor.

[3] = test system: human hepatic stellate cell line LX2; assay: Antifibrotic activity: collagen I mRNA in LX2 cells, real time PCR; assay type: cell-based; conditions: serum starved LX2 cells, 24 hours; HGF 100 ng/ml, compounds 12 to 24 ug/ml
Description: a. Antifibrotic Activity in Hepatic Stellate Cells. Serum starved (activated) LX2 cells (an immortalized human hepatic stellate cell line) that are treated with HGF/SF or a compound of the invention show a decrease in collagen I mRNA expression, as well as expression of other fibrotic marker genes, related to significant antifibrotic activity.
The antifibrotic effects of HGF and compounds of the invention in the immortalized human hepatic stellate cell line LX2 are determined. Serum starved LX2 cells are treated for 24 hours with HGF at 100 ng/ml and compounds of the invention at doses ranging from 12 to 24 ug/ml. RNA is then isolated and real time PCR was performed to evaluate changes in collagen I mRNA. […] Additional experiments to determine the effects of HGF and compounds on TGFb-1, bPDGF-R and MMP-1 mRNA are also performed to more completely characterize activities of these compounds which can contribute to their antifibrotic effects.

Compound	nitric oxide production (DAF 2-DA fluorescence) (HUVECs)	viability [1] [%]	vessel area (C57BL/6 mice)	cell viability after pretreatment, then adriamycin (MDCK cells; adriamycin-induced apoptosis) [%]	cell viability, compound or HGF alone (MDCK cells; without adriamycin)	endothelial cell outgrowth from aortic rings (isolated aortic rings)	protection from adriamycin-induced apoptosis (MTT) [2]	decrease in collagen I mRNA expression [3] [%]	nitric oxide production (DAF 2-DA fluorescence) (HUVECs; listed as HGF/SF)
CC(=O)N[C@@H](C(=O)O)C(C)(C)SN=O (racemic) [SNAP, reference compound]	significant increase in fluorescence	–	–	–	–	–	–	–	–
COc1cccc2c1C(=O)c1c(O)c3c(c(O)c1C2=O)C[C@@](O)(C(=O)CO)C[C@@H]3O[C@H]1C[C@H](N)[C@H](O)[C@H](C)O1 [Adriamycin, reference compound]	–	56	–	–	–	–	–	–	–
HGF: pleiotropic growth factor that stimulates cell growth, cell motility, morphogenesis and angiogenesis	stimulate nitric oxide production	–	dose-dependently increases the vessel area	94	no effect on cell viability	stimulated equivalent endothelial cell outgrowth	protect the cells from adriamycin-induced apoptosis	70	significant increase in fluorescence
